Experimental data reported in patent US11261192B2, “Substituted 1,2-dihydro-3H-pyrazolo[3,4-D]pyrimidin-3-ones” (Recurium IP Holdings, LLC, priority 2018, dated 2022).

The compounds below were run on H23 cells (assay: H23 Cellular Proliferation Assay (CellTiter-Glo)). Settings: Homo sapiens, NCI-H23, 96 h, 4 days, read-out: H23 CTG IC50.
Assay type: cell-based
Protocol: H23 Cellular Proliferation Assay
Cells were treated with compounds diluted in DMSO and a 9 point 5-fold serial dilutions. Plates were placed in 37° C., 5% CO2 for to incubate for 4 days. Before they were developed by adding 100 μL of CellTiter-Glo reagent (Promega) to the assay plate, plates were shaken briefly for 2 mins and allowed to incubate at rt for 10 mins. The plates are read with a M5e plate reader according to CellTiter-Glo protocol. The GraphPad Prism software is used to get IC50 values.

First: C=CCn1c(=O)c2cnc(Nc3ccc(N4CCN(C)CC4)cc3)nc2n1-c1ccc2c(c1)[C@](O)(CC)CO2 (single isomer, unassigned) [Example 5A]
Second: C=CCn1c(=O)c2cnc(Nc3ccc(N4CCN(C)CC4)cc3)nc2n1-c1ccc2c(c1)[C@@](O)(CC)CO2 (single isomer, unassigned) [Example 5B]
The IC50 of the first is higher: greater than 1000 nM for the first, 100 to 1000 nM for the second. The second is the more potent here.

First: C=CCn1c(=O)c2cnc(Nc3ccc(N4CCN(C)CC4)cc3)nc2n1-c1ccc2c(n1)[C@](O)(C(F)(F)F)CO2 (single isomer, unassigned) [Example 6A]
Second: C=CCn1c(=O)c2cnc(Nc3ccc(N4CCN(C)CC4)cc3)nc2n1-c1ccc2c(n1)[C@@](O)(C(F)(F)F)CO2 (single isomer, unassigned) [Example 6B]
The IC50 of the first is higher: greater than 1000 nM for the first, 100 to 1000 nM for the second.

First: C=CCn1c(=O)c2cnc(Nc3ccc(N4CCNCC4)c(C)c3)nc2n1-c1ccc2c(n1)[C@](O)(CC)CC2 (single isomer, unassigned) [Example 13A]
Second: C=CCn1c(=O)c2cnc(Nc3ccc(N4CCNCC4)c(C)c3)nc2n1-c1ccc2c(n1)[C@@](O)(CC)CC2 (single isomer, unassigned) [Example 13B]
The IC50 of the first is higher: 100 to 1000 nM for the first, less than 100 nM for the second.

Compared with C=CCn1c(=O)c2cnc(Nc3ccc(N4CCN(C)CC4)cc3)nc2n1-c1ccc2c(n1)[C@](O)(C1CC1)CC2 (single isomer, unassigned) [Example 16A], C=CCn1c(=O)c2cnc(Nc3ccc(N4CCN(C)CC4)cc3)nc2n1-c1ccc2c(n1)[C@](O)(C(C)(F)F)CC2 (single isomer, unassigned) [Example 38A] is higher in IC50: 100 to 1000 nM for the first, greater than 1000 nM for the second.

C=CCn1c(=O)c2cnc(Nc3ccc(N4CCN(C)[C@@H](C)C4)cc3)nc2n1-c1ccc2c(n1)[C@@](C)(O)CC2 (single isomer, unassigned) [Example 17A] and C=CCn1c(=O)c2cnc(Nc3ccc(N4CCN(C)[C@@H](C)C4)cc3)nc2n1-c1ccc2c(n1)[C@](C)(O)CC2 (single isomer, unassigned) [Example 17B] fall in the same range of IC50: 100 to 1000 nM for the first, 100 to 1000 nM for the second.

C=CCn1c(=O)c2cnc(Nc3ccc(N4CCN(C)[C@H](C)C4)cc3)nc2n1-c1ccc2c(n1)[C@@](C)(O)CC2 (single isomer, unassigned) [Example 18A] and C=CCn1c(=O)c2cnc(Nc3ccc(N4CCN(C)[C@H](C)C4)cc3)nc2n1-c1ccc2c(n1)[C@](C)(O)CC2 (single isomer, unassigned) [Example 18B] fall in the same range of IC50: 100 to 1000 nM for the first, 100 to 1000 nM for the second.

First: C=CCn1c(=O)c2cnc(Nc3ccc(N4CCN(C)C[C@@H]4C)cc3)nc2n1-c1ccc2c(n1)[C@@](C)(O)CC2 (single isomer, unassigned) [Example 19A]
Second: C=CCn1c(=O)c2cnc(Nc3ccc(N4CCN(C)C[C@@H]4C)cc3)nc2n1-c1ccc2c(n1)[C@](C)(O)CC2 (single isomer, unassigned) [Example 19B]
The IC50 of the first is higher: greater than 1000 nM for the first, 100 to 1000 nM for the second.

Compared with C=CCn1c(=O)c2cnc(Nc3ccc(N4CCN(C)C[C@H]4C)cc3)nc2n1-c1ccc2c(n1)[C@@](C)(O)CC2 (single isomer, unassigned) [Example 20A], C=CCn1c(=O)c2cnc(Nc3ccc(N4CCN(C)C[C@H]4C)cc3)nc2n1-c1ccc2c(n1)[C@](C)(O)CC2 (single isomer, unassigned) [Example 20B] is lower in IC50: greater than 1000 nM for the first, 100 to 1000 nM for the second.

First: C=CCn1c(=O)c2cnc(Nc3ccc(N4CCN(C)CC4)c(C)c3)nc2n1-c1ccc2c(c1)[C@@](C)(O)CC2 (single isomer, unassigned) [Example 23A]
Second: C=CCn1c(=O)c2cnc(Nc3ccc(N4CCN(C)CC4)c(C)c3)nc2n1-c1ccc2c(c1)[C@](C)(O)CC2 (single isomer, unassigned) [Example 23B]
The IC50 of the first is higher: 100 to 1000 nM for the first, less than 100 nM for the second.

C=CCn1c(=O)c2cnc(Nc3ccc(N4CCN(C)CC4)cc3)nc2n1-c1cc(F)c2c(c1)[C@@](C)(O)CC2 (single isomer, unassigned) [Example 24A] and C=CCn1c(=O)c2cnc(Nc3ccc(N4CCN(C)CC4)cc3)nc2n1-c1cc(F)c2c(c1)[C@](C)(O)CC2 (single isomer, unassigned) [Example 24B] fall in the same range of IC50: 100 to 1000 nM for the first, 100 to 1000 nM for the second.

C=CCn1c(=O)c2cnc(Nc3ccc(N4CCNCC4)cc3)nc2n1-c1ccc2c(n1)[C@@](C)(O)CCC2 (single isomer, unassigned) [Example 28A] and C=CCn1c(=O)c2cnc(Nc3ccc(N4CCNCC4)cc3)nc2n1-c1ccc2c(n1)[C@](C)(O)CCC2 (single isomer, unassigned) [Example 28B] fall in the same range of IC50: 100 to 1000 nM for the first, 100 to 1000 nM for the second.

C=CCn1c(=O)c2cnc(Nc3ccc4c(c3)CNCC43CC3)nc2n1-c1ccc2c(n1)[C@@](C)(O)CCC2 (single isomer, unassigned) [Example 31A] and C=CCn1c(=O)c2cnc(Nc3ccc4c(c3)CNCC43CC3)nc2n1-c1ccc2c(n1)[C@](C)(O)CCC2 (single isomer, unassigned) [Example 31B] cannot be ordered by IC50: less than 100 nM for the first, less than 100 nM for the second.

C=CCn1c(=O)c2cnc(Nc3ccc(N4CCN(C)CC4)cc3)nc2n1-c1cc2c(cn1)CC[C@]2(C)O (single isomer, unassigned) [Example 37A] and C=CCn1c(=O)c2cnc(Nc3ccc(N4CCN(C)CC4)cc3)nc2n1-c1cc2c(cn1)CC[C@@]2(C)O (single isomer, unassigned) [Example 37B] cannot be ordered by IC50: greater than 1000 nM for the first, greater than 1000 nM for the second.

First: C=CCn1c(=O)c2cnc(Nc3ccc(N4CCN(C)CC4)cc3)nc2n1-c1ccc2c(n1)[C@@](O)(C(C)(F)F)CC2 (single isomer, unassigned) [Example 38B]
Second: C=CCn1c(=O)c2cnc(Nc3ccc(N4CCN(C)CC4)cc3)nc2n1-c1ccc2c(n1)[C@@](C)(NC(C)=O)CCC2 (single isomer, unassigned) [Example 41A]
The IC50 of the first is lower: 100 to 1000 nM for the first, greater than 1000 nM for the second.

C=CCn1c(=O)c2cnc(Nc3ccc4c(ccn4C4CCN(C)CC4)c3)nc2n1-c1ccc2c(n1)[C@](O)(CC)CC2 (single isomer, unassigned) [Example 39A] and C=CCn1c(=O)c2cnc(Nc3ccc4c(ccn4C4CCN(C)CC4)c3)nc2n1-c1ccc2c(n1)[C@@](O)(CC)CC2 (single isomer, unassigned) [Example 39B] fall in the same range of IC50: 100 to 1000 nM for the first, 100 to 1000 nM for the second.

Compared with C=CCn1c(=O)c2cnc(Nc3ccc(C4=CCN(C)CC4)c(C)c3)nc2n1-c1ccc2c(n1)[C@](O)(CC)CC2 (single isomer, unassigned) [Example 40A], C=CCn1c(=O)c2cnc(Nc3ccc(C4=CCN(C)CC4)c(C)c3)nc2n1-c1ccc2c(n1)[C@@](O)(CC)CC2 (single isomer, unassigned) [Example 40B] is lower in IC50: 100 to 1000 nM for the first, less than 100 nM for the second. The second is the more potent here.

Compared with C=CCn1c(=O)c2cnc(Nc3ccc(N4CCN(C)CC4)cc3)nc2n1-c1ccc2c(n1)[C@](C)(NC(C)=O)CCC2 (single isomer, unassigned) [Example 41B], C=CCn1c(=O)c2cnc(Nc3ccc(N4CCN(C)CC4)cc3)nc2n1-c1cccc(C(C)(C)O)n1 [AZD1775, 2-allyl-1-(6-(2-hydroxypropan-2-yl)pyridin-2-yl)-6-(4-(4-methylpiperazin-1-yl)phenylamino)-1,2-dihydropyrazolo[3,4-d]pyrimidin-3-one, reference compound] is lower in IC50: greater than 1000 nM for the first, 100 to 1000 nM for the second.

In the case of C=CCn1c(=O)c2cnc(Nc3ccc(N4CCNCC4)cc3)nc2n1-c1ccc2c(n1)[C@@](O)(CC)CC2 [Example 14, (R)-2-allyl-1-(7-ethyl-7-hydroxy-6,7-dihydro-5H-cyclopenta[b]pyridin-2-yl)-6-((4-(piperazin-1-yl)phenyl)amino)-1,2-dihydro-3H-pyrazolo[3,4-d]pyrimidin-3-one], the IC50 is reported as 100 to 1000 nM.
